From patent publication US7160888B2, “[1,8]naphthyridin-2-ones and related compounds for the treatment of schizophrenia” (Warner Lambert Company LLC, priority 2003, dated 2007)

The compounds below were run against D2 receptor (Homo sapiens, UniProt P14416) (assay: [3H]Thymidine uptake assay for D2 intrinsic activity). Conditions: Table 1; test compound 1 μM; 1 μM Quinpirole = 100% intrinsic activity.
Format: cell-based
Method: D2 intrinsic activity of title compounds of the Examples, below, was determined using the [^3H]thymidine uptake assay described below.
[^3H]Thymidine Uptake Assay for D2 Intrinsic Activity
Cells are serum deprived by washing twice with 200 μl of serum-free media. 90 μl serum-free media was added to each well. The plates ware incubated for two to three hours. 10 μl of serum-containing media, as a positive control, vehicle (serum-free media), negative control (an antagonist) or test compounds and standards (10 μl of a 10 μM solution for a final concentration of 1 μM) in serum-free media were added to wells. The plates are returned to the incubator. Eighteen hours later [^3H]thymidine is added (0.5 μCi/well in 10 μl of serum-free media) and the plates are returned to the incubator. […] The plates are returned to the incubator, once again. One hour later the assay is terminated by rapid filtration through Whatman GF/C glass fiber filters. Filters are washed four times with 500 ml of 50 mM Tris-HCl pH 7.0 buffer, for example, using a Brandel MLR-96T cell harvester. […] Intrinsic activity is defined as total uptake (1 μM Quinpirole) minus serum-free media (no uptake). Test compounds are compared to 1 μM Quinpirole (full DA agonist), which was classified as 100% intrinsic activity.

Chain of D2 receptor (P14416 whole entry): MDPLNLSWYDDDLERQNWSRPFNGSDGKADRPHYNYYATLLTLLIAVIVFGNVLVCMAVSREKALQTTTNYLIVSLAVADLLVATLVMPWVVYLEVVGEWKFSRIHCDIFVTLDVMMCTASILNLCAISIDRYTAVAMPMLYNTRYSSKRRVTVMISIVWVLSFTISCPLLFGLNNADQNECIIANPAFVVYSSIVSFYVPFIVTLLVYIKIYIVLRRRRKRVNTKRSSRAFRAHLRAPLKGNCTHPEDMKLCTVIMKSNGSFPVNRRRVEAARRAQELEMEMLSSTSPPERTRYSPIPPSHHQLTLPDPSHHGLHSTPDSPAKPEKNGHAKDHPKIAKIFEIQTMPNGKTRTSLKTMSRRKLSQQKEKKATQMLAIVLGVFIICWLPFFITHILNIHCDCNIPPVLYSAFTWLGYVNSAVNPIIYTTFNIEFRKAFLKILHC

SMILES | Emax at 1 µM
CCc1cccc(N2CCN(CCCCOc3ccc4c(n3)NC(=O)CC4)CC2)n1 [Example A45, 7-{4-[4-(6-Ethyl-pyridin-2-yl)-piperazin-1-yl]-butoxy}-3,4-dihydro-1H-[1,8]naphthyridin-2-one] | 34%
O=C1CCc2ccc(OCCCCN3CCN(c4cccc(C5CC5)n4)CC3)nc2N1 [Example A46, 7-{4-[4-(6-Cyclopropyl-pyridin-2-yl)-piperazin-1-yl]-butoxy}-3,4-dihydro-1H-[1,8]naphthyridin-2-one] | 41%
O=C1CCc2ccc(OCCCCN3CCN(c4cccc5ccccc45)CC3)nc2N1 [Example A48, 7-[4-(4-Naphthalen-1-yl-piperazin-1-yl)-butoxy]-3,4-dihydro-1H-[1,8]naphthyridin-2-one] | 34%
O=C1CCc2ccc(OCCCCN3CCN(c4cc(F)cc5c4CCCC5)CC3)nc2N1 [Example A50, 7-{4-[4-(3-Fluoro-5,6,7,8-tetrahydro-naphthalen-1-yl)-piperazin-1-yl]-butoxy}-3,4-dihydro-1H-[1,8]naphthyridin-2-one] | 14%
O=C1CCc2ccc(OCCCCN3CCN(c4cccc5c4C(=O)CCC5)CC3)nc2N1 [Example A51, 7-{4-[4-(8-Oxo-5,6,7,8-tetrahydro-naphthalen-1-yl)-piperazin-1-yl]-butoxy}-3,4-dihydro-1H-[1,8]naphthyridin-2-one] | 20%
CC1(C)CCc2cccc(N3CCN(CCCCOc4ccc5c(n4)NC(=O)CC5)CC3)c2C1=O [Example A52, 7-{4-[4-(7,7-Dimethyl-8-oxo-5,6,7,8-tetrahydro-naphthalen-1-yl)-piperazin-1-yl]-butoxy}-3,4-dihydro-1H-[1,8]naphthyridin-2-one] | 32%
O=C1CCc2cccc(N3CCN(CCCCOc4ccc5c(n4)NC(=O)CC5)CC3)c2C1 [Example A56, 7-{4-[4-(7-Oxo-5,6,7,8-tetrahydro-naphthalen-1-yl)-piperazin-1-yl]-butoxy}-3,4-dihydro-1H-[1,8]naphthyridin-2-one] | 29%
O=C1CCc2ccc(OCCCCN3CCN(c4cccc5c4CCCC5(F)F)CC3)nc2N1 [Example A59, 7-{4-[4-(5,5-Difluoro-5,6,7,8-tetrahydro-naphthalen-1-yl)-piperazin-1-yl]-butoxy}-3,4-dihydro-1H-[1,8]naphthyridin-2-one] | 30%
O=C1CCc2ccc(OCCCCN3CCN(c4cccc5c4CC(F)(F)C5)CC3)nc2N1 [Example A62, 7-{4-[4-(2,2-Difluoro-indan-4-yl)-piperazin-1-yl]-butoxy}-3,4-dihydro-1H-[1,8]naphthyridin-2-one] | 27%
O=C1CCc2ccc(OCCCCN3CCN(c4cccc5c4CCCCC5)CC3)nc2N1 [Example A63, 7-{4-[4-(6,7,8,9-Tetrahydro-5H-benzocyclohepten-1-yl)-piperazin-1-yl]-butoxy}-3,4-dihydro-1H-[1,8]naphthyridin-2-one] | 4%
O=C1CCc2ccc(OCCCCN3CCC(c4cccc5ccccc45)CC3)nc2N1 [Example A64, 7-[4-(4-Naphthalen-1-yl-piperidin-1-yl)-butoxy]-3,4-dihydro-1H-[1,8]naphthyridin-2-one] | 36%
O=C1CCc2ccc(OCCCCN3CCN(c4cccc5cccc(F)c45)CC3)nc2N1 [Example A66, 7-{4-[4-(8-Fluoro-naphthalen-1-yl)-piperazin-1-yl]-butoxy}-3,4-dihydro-1H-[1,8]naphthyridin-2-one] | 49%
COc1ccc2cccc(N3CCN(CCCCOc4ccc5c(n4)NC(=O)CC5)CC3)c2c1 [Example A73, 7-{4-[4-(7-Methoxy-naphthalen-1-yl)-piperazin-1-yl]-butoxy}-3,4-dihydro-1H-[1,8]naphthyridin-2-one] | 23%
O=C1CCc2ccc(OCCCCN3CCN(c4cccc5ccc(Cl)cc45)CC3)nc2N1 [Example A74, 7-{4-[4-(7-Chloro-naphthalen-1-yl)-piperazin-1-yl]-butoxy}-3,4-dihydro-1H-[1,8]naphthyridin-2-one] | 37%
O=C1CCc2ccc(OCCCCN3CCN(c4cccc5c(Cl)cccc45)CC3)nc2N1 [Example A75, 7-{4-[4-(5-Chloro-naphthalen-1-yl)-piperazin-1-yl]-butoxy}-3,4-dihydro-1H-[1,8]naphthyridin-2-one] | 36%
O=C1CCc2ccc(OCCCCN3CCN(c4cccc5cc(Cl)ccc45)CC3)nc2N1 [Example A76, 7-{4-[4-(6-Chloro-naphthalen-1-yl)-piperazin-1-yl]-butoxy}-3,4-dihydro-1H-[1,8]naphthyridin-2-one] | 16%
O=C1CCc2ccc(OCCCCN3CCN(c4cccc5cccc(Cl)c45)CC3)nc2N1 [Example A77, 7-{4-[4-(8-Chloro-naphthalen-1-yl)-piperazin-1-yl]-butoxy}-3,4-dihydro-1H-[1,8]naphthyridin-2-one] | 36%
CC(=O)c1ccc2cccc(N3CCN(CCCCOc4ccc5c(n4)NC(=O)CC5)CC3)c2c1 [Example A78, 7-{4-[4-(7-Acetyl-naphthalen-1-yl)-piperazin-1-yl]-butoxy}-3,4-dihydro-1H-[1,8]naphthyridin-2-one] | 24%
CC(=O)c1ccc2c(N3CCN(CCCCOc4ccc5c(n4)NC(=O)CC5)CC3)cccc2c1 [Example A79, 7-{4-[4-(6-Acetyl-napthalen-1-yl)-piperazin-1-yl]-butoxy}-3,4-dihydro-1H-[1,8]naphthyridin-2-one] | 24%
CC(=O)c1cccc2c(N3CCN(CCCCOc4ccc5c(n4)NC(=O)CC5)CC3)cccc12 [Example A80, 7-{4-[4-(5-Acetyl-naphthalen-1-yl)-piperazin-1-yl]-butoxy}-3,4-dihydro-1H-[1,8]naphthyridin-2-one] | 30%
CC(=O)c1ccc(N2CCN(CCCCOc3ccc4c(n3)NC(=O)CC4)CC2)c2ccccc12 [Example A81, 7-{4-[4-(4-Acetyl-naphthalen-1-yl)-piperazin-1-yl]-butoxy}-3,4-dihydro-1H-[1,8]naphthyridin-2-one] | 4%
CC(=O)c1ccc2ccccc2c1N1CCN(CCCCOc2ccc3c(n2)NC(=O)CC3)CC1 [Example A82, 7-{4-[4-(2-Acetyl-naphthalen-1-yl)-piperazin-1-yl]-butoxy}-3,4-dihydro-1H-[1,8]naphthyridin-2-one] | 27%
N#Cc1ccc2cccc(N3CCN(CCCCOc4ccc5c(n4)NC(=O)CC5)CC3)c2c1 [Example A83, 8-{4-[4-(7-Oxo-5,6,7,8-tetrahydro-[1,8]naphthyridin-2-yloxy)-butyl]-piperazin-1-yl}-naphthalene-2-carbonitrile] | 36%
CC(=O)Nc1ccc2cccc(N3CCN(CCCCOc4ccc5c(n4)NC(=O)CC5)CC3)c2c1 [Example A84, N-(8-{4-[4-(7-Oxo-5,6,7,8-tetrahydro-[1,8]naphthyridin-2-yloxy)-butyl]-piperazin-1-yl}-naphthalen-2-yl)-acetamide] | 11%
O=c1ccc2ccc(OCCCCN3CCN(c4cccc(C(F)(F)F)c4Cl)CC3)nc2[nH]1 [Example B2, 7-{4-[4-(2-Chloro-3-trifluoromethyl-phenyl)-piperazin-1-yl]-butoxy}-1H-[1,8]naphthyridin-2-one] | 22%
CC(=O)c1c(Cl)cccc1N1CCN(CCCCOc2ccc3ccc(=O)[nH]c3n2)CC1 [Example B3, 7-{4-[4-(2-Acetyl-3-chloro-phenyl)-piperazin-1-yl]-butoxy}-1H-[1,8]naphthyridin-2-one] | 8%
CCc1c(Cl)cccc1N1CCN(CCCCOc2ccc3ccc(=O)[nH]c3n2)CC1 [Example B4, 7-{4-[4-(3-Chloro-2-ethyl-phenyl)-piperazin-1-yl]-butoxy}-1H-[1,8]naphthyridin-2-one] | 22%
CC(=O)c1c(F)cccc1N1CCN(CCCCOc2ccc3ccc(=O)[nH]c3n2)CC1 [Example B5, 7-{4-[4-(2-Acetyl-3-fluoro-phenyl)-piperazin-1-yl]-butoxy}-1H-[1,8]naphthyridin-2-one] | 2%

Same assay, conditions: Table 2; test compound 1 μM; 1 μM Quinpirole = 100% intrinsic activity

SMILES | Emax at 1 µM
O=C1CCc2ccc(OCCCCN3CCN(c4cccc5ccc(=O)[nH]c45)CC3)nc2N1 [Example A47′, 7-{4-[4-(2-Oxo-1,2-dihydro-quinolin-8-yl)-piperazin-1-yl]-butoxy}-3,4-dihydro-1H-[1,8]naphthyridin-2-one] | 32%
O=C1CCc2ccc(OCCCCN3CCN(c4cccc5c4NC(=O)CC5)CC3)nc2N1 [Example A48′, 7-{4-[4-(2-Oxo-1,2,3,4-tetrahydro-quinolin-8-yl)-piperazin-1-yl]-butoxy}-3,4-dihydro-1H-[1,8]naphthyridin-2-one] | 34%
CN1C(=O)CCc2cccc(N3CCN(CCCCOc4ccc5c(n4)NC(=O)CC5)CC3)c21 [Example A49′, 7-{4-[4-(1-Methyl-2-oxo-1,2,3,4-tetrahydro-quinolin-8-yl)-piperazin-1-yl]-butoxy}-3,4-dihydro-1H-[1,8]naphthyridin-2-one] | 38%
O=c1ccc2ccc(OCCCCN3CCN(c4cccc5c4OCCC5)CC3)nc2[nH]1 [Example B1′, 7-[4-(4-Chroman-8-yl-piperazin-1-yl)-butoxy]-1H-[1,8]naphthyridin-2-one] | 22%
CC1(C)C=Cc2cccc(N3CCN(CCCCOc4ccc5ccc(=O)[nH]c5n4)CC3)c2O1 [Example B2′, 7-{4-[4-(2,2-Dimethyl-2H-chromen-8-yl)-piperazin-1-yl]-butoxy}-1H-[1,8]naphthyridin-2-one] | 33%
CC1(C)CCc2cccc(N3CCN(CCCCOc4ccc5ccc(=O)[nH]c5n4)CC3)c2O1 [Example B3′, 7-{4-[4-(2,2-Dimethyl-chroman-8-yl)-piperazin-1-yl]-butoxy}-1H-[1,8]naphthyridin-2-one] | 50%
CC1C=Cc2cccc(N3CCN(CCCCOc4ccc5ccc(=O)[nH]c5n4)CC3)c2O1 (stereo not drawn) [Example B4′, 7-{4-[4-(2-Methyl-2H-chromen-8-yl)-piperazin-1-yl]-butoxy}-1H-[1,8]naphthyridin-2-one] | 28%
O=c1ccc2ccc(OCCCCN3CCN(c4cccc5c4OC4(C=C5)CCCC4)CC3)nc2[nH]1 [Example B6′, 7-{4-[4-(Spiro[chromene-2,1′-cyclopentan]-8-yl)-piperazin-1-yl]-butoxy}-1H-[1,8]naphthyridin-2-one] | 33%
